# Key:
# [1] = Assay C: Hepatocyte clearance; assay type: in vitro ADME, human; details: hepatocyte suspension, 1 μM compound, 6 h; predicted clearance as % of hepatic blood flow
# Description: Assay C: Hepatocyte Clearance
# The metabolic degradation of the test compound is assayed in a hepatocyte suspension. Hepatocytes (cryopreserved) are incubated in Dulbecco's modified eagle medium (supplemented with 3.5 μg glucagon/500 mL, 2.5 mg insulin/500 mL and 3.75 mg/500 mL hydrocortison) containing 5% or 50% species serum.
# The cells are incubated for six hours (incubator, orbital shaker) and samples ([…]) are taken at 0, 0.5, 1, 2, 4 and 6 hours. Samples are transferred into acetonitrile and pelleted by centrifugation (5 min). The supernatant is transferred to a new 96-deepwell plate, evaporated under nitrogen and resuspended.
# Decline of Parent Compound is Analyzed by HPLC-MS/MS
# CLint is calculated as follows CL_[…]=Dose/AUC=(C0/CD)/(AUD+clast/k)×1000/60. C0: initial concentration in the incubation [μM], CD: cell density of vital cells [10e6 cells/mL], AUD: area under the data [μM×h], clast: concentration of last data point [μM], k: slope of the regression line for parent decline [h−1].
# The calculated in vitro hepatic intrinsic clearance can be scaled up to the intrinsic in vivo hepatic Clearance and used to predict hepatic in vivo blood clearance (CL) by the use of a liver model (well stirred model). CL_[…]_INVIVO [ml/min/kg]=(CL_[…] [μL/min/10e6 cells]×hepatocellularity [10e6 cells/g liver]×liver factor [g/kg bodyweight])/1000 CL[ml/min/kg]=CL_[…]_INVIVO [ml/min/kg]×hepatic blood flow [ml/min/kg]/(CL_[…]_INVIVO [ml/min/kg]+hepatic blood flow [ml/min/kg]) Qh[%]=CL[ml/min/kg]/hepatic blood flow [ml/min/kg])
# (§1) Hepatocellularity, human: 120×10e6 cells/g liver
# (§2) Liver factor, human: 25.7 g/kg bodyweight
# (§3) Blood flow, human: 21 ml/(min×kg)
# human TRPA1 ion channel = molecular target: T1, human TRPA1 ion channel (Homo sapiens, UniProt O75762); assay: Assay A: TRPA1 assay (FLIPR, AITC-induced calcium, HEK293 cells); assay type: cell-based; details: read-out: hTRPA1 IC50
# T1 construct: host or cells: HEK293
# T1 sequence (O75762 whole entry): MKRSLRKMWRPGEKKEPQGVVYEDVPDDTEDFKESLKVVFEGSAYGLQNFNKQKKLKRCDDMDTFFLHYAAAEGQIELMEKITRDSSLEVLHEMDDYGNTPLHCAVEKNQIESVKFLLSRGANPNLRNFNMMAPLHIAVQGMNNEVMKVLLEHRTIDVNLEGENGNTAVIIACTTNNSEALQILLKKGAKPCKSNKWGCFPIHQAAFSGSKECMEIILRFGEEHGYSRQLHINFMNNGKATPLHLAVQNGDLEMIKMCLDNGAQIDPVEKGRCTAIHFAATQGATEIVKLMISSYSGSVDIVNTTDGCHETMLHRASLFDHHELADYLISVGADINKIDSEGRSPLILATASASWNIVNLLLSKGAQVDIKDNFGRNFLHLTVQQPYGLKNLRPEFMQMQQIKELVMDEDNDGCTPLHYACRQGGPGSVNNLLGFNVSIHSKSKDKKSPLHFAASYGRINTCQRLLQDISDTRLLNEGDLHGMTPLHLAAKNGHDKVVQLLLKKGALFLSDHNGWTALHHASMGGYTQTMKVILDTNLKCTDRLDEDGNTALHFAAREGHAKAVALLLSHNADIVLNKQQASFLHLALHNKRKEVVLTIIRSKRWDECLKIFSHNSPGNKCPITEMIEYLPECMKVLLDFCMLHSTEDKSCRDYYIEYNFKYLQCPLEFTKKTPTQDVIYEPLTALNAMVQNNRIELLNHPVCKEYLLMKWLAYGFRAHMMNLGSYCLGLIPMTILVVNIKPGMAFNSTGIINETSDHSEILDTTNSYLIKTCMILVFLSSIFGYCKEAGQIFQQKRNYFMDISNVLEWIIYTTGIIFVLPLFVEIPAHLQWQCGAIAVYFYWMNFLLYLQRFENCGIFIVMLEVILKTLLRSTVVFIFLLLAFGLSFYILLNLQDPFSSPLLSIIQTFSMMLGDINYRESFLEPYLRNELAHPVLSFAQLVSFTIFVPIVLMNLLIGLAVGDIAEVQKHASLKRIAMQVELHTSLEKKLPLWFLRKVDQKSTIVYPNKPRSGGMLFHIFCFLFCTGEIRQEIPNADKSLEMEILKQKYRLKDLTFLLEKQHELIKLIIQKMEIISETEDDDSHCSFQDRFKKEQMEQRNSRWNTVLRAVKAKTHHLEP
# Description: A human HEK293 cell line over-expressing the human TRPA1 ion channel (Perkin Elmer, Product No. AX-004-PCL) is used as a test system for compound efficacy and potency. Compound activity is determined by measuring the effect of compounds on intracellular calcium concentration induced by AITC (Allylisothiocyanat) agonism in a FLIPRtetra system (Molecular Devices).
# The cells are obtained as frozen cells in cryo-vials and stored until use at −150° C. Cells are grown in culture medium (MEM/EBSS medium with 10% FCS and 0.4 mg/ML Geneticin). […] For sub-culturing cells are detached from flasks by Versene. At the day before the assay, cells are detached, washed twice with medium (MEM/EBSS medium with 10% FCS) and 20000 cells in 20 μl/well are seeded to Poly D-Lysin biocoated 384-well plates (black, clear bottom, Cat. 356697) from Corning. Plates are incubated for 24 hours at 37° C./5% CO2 before use in the assay.
# The test compounds are dissolved in 100% DMSO at a concentration of 10 mM and in a first step diluted in DMSO to a concentration of 5 mM, followed by serial dilution steps in 100% DMSO. Dilution factor and number of dilution steps may vary according to needs. Typically 8 different concentrations by 1:5 dilutions are prepared, further intermediate dilutions (1:20) of the substances are carried out with HBSS/HEPES buffer (1×HEPES, Cat. 14065 from Gibco, 20 mM HEPES, Cat. 83264 from SIGMA, 0.1% BSA Cat. 11926 from Invitrogen, pH 7.4
# At the assay day cells are washed 3× with assay puffer, 20 μL buffer remaining in the wells after washing. 10 μL Ca6 kit (Cat. R8191 MolecularDevices) loading buffer in HBSS/HEPES is added to the cells and the plates are incubated with lid for 120 minutes at 37°/5% CO2. 10 μL of compound or controls in HBSS/HEPES buffer/5% DMSO from the intermediate dilution plate are carefully added to the wells. […] Finally 10 μL of the agonist AITC 50 μM dissolved in HBSS/HEPES buffer/0.05% DMSO (final concentration 10 μM) is added to the wells followed by an additional read on the FLIPRtetra device for 10 minutes. The area under the signal curve (AUC) after AITC addition is used for IC50/% inhibition calculations
# Data Evaluation and Calculation:
# Each assay microtiter plate contains wells with vehicle (1% DMSO) controls instead of compound as controls for AITC induced luminescence (100% CTL; high controls) and wells with vehicle controls without AITC as controls for non-specific changes in luminescence (0% CTL; low controls).
# The analysis of the data is performed by the calculation of the area under signal curve of the individual wells. Based on this values the % value for the measurement of each substance concentration is calculated (AUC(sample)−AUC(low))*100/(AUC(high)−AUC(low)) using MegaLab software (in house development). The IC50 values are calculated from the % control values using MegaLab software. Calculation: [y=(ad)/(1+(x/c)^b)+d], a=low value, d=high value; x=conc M; c=IC50 M; b=hill; y=% ctrl
# [2] = Assay B: Microsomal clearance; assay type: in vitro ADME, human; details: pooled liver microsomes 1 mg/ml, 1 μM compound, NADPH, 37° C.; clearance as % of hepatic blood flow
# Description: Assay B: Microsomal Clearance:
# The metabolic degradation of the test compound is assayed at 37° C. with pooled liver microsomes. The final incubation volume of 100 μl per time point contains TRIS buffer pH 7.6 at RT (0.1 M), magnesium chloride (5 mM), microsomal protein (1 mg/ml) and the test compound at a final concentration of 1 μM.
# Following a short preincubation period at 37° C., the reactions are initiated by addition of beta-nicotinamide adenine dinucleotide phosphate, reduced form (NADPH, 1 mM) and terminated by transferring an aliquot into solvent after different time points (0, 5, 15, 30, 60 min). Additionally, the NADPH-independent degradation is monitored in incubations without NADPH, terminated at the last time point. The [%] remaining test compound after NADPH independent incubation is reflected by the parameter c(control) (metabolic stability). The quenched incubations are pelleted by centrifugation (10000 g, 5 min).
# An aliquot of the supernatant is assayed by LC-MS/MS for the amount of parent compound. The half-life (t½ INVITRO) is determined by the slope of the semilogarithmic plot of the concentration-time profile.
# The intrinsic clearance (CL_[…]) is calculated by considering the amount of protein in the incubation: CL_[…] [μl/min/mg protein]=(Ln 2/(half-life [min]*protein content [mg/ml]))*1000 CL_[…]_INVIVO [ml/min/kg]=(CL_[…] [μL/min/mg protein]×MPPGL [mg protein/g liver]×liver factor [g/kg bodyweight])/1000 Qh[%]=CL[ml/min/kg]/hepatic blood flow [ml/min/kg])
# as §1, §2, §3
SMILES,human Hepatocytes [% Qh] [1] [% Qh],IC50 (human TRPA1 ion channel) [nM],human LM [% Qh] [2] [% Qh]
"Cn1c(=O)c(C(N)=O)cn(Cc2nnn(C[C@H](O)c3ccc(Cl)cc3)n2)c1=O [Example 1, 1-({2-[(2R)-2-(4-chlorophenyl)-2-hydroxyethyl]-2H-1,2,3,4-tetrazol-5-yl}methyl)-3-methyl-2,4-dioxo-1,2,3,4-tetrahydropyrimidine-5-carboxamide]",<4,40,<23
Cn1c(=O)c(C(N)=O)cn(Cc2nnn(C[C@H](O)c3cc4ccccc4s3)n2)c1=O [Example 2],13,18,<23
Cn1c(=O)c(C(N)=O)cn(Cc2nnn(C[C@H](O)c3cc4ccc(F)cc4s3)n2)c1=O [Example 3],27,18,26
Cn1c(=O)c(C(N)=O)cn(Cc2nnn(C[C@H](O)c3ccc4oc(F)cc4c3)n2)c1=O [Example 4],8,34,<23
Cn1c(=O)c(C(N)=O)cn(Cc2nnn(C[C@H](O)c3cc(Cl)c(Cl)s3)n2)c1=O [Example 5],43,26,<23
Cn1c(=O)c(C(N)=O)cn(Cc2nnn(C[C@H](O)c3cc4cc(Cl)ccc4o3)n2)c1=O [Example 6],15,42,<23
Cn1c(=O)c(C(N)=O)cn(Cc2nnn(C[C@H](O)c3ccc(Br)cc3)n2)c1=O [Example 7],<4,56,<23
Cn1c(=O)c(C(N)=O)cn(Cc2nnn(C[C@H](O)c3cc4cc(F)ccc4o3)n2)c1=O [Example 8],6,59,<23
Cn1c(=O)c(C(N)=O)cn(Cc2nnn(C[C@H](O)c3cc4ccccc4o3)n2)c1=O [Example 9],7,72,<23
Cn1c(=O)c(C(N)=O)cn(Cc2nnn(C[C@H](O)c3ccc(Cl)s3)n2)c1=O [Example 10],15,92,<23
Cn1c(=O)c(C(N)=O)cn(Cc2nnn(C[C@H](O)c3ccc4c(c3)OCO4)n2)c1=O [Example 11],<4,105,<23
Cn1c(=O)c(C(N)=O)cn(Cc2nnn(C[C@H](O)c3cc4ccc(F)cc4o3)n2)c1=O [Example 12],16,110,<23
Cc1ccc([C@@H](O)Cn2nnc(Cn3cc(C(N)=O)c(=O)n(C)c3=O)n2)cc1 [Example 13],<4,124,<23
Cn1c(=O)c(C(N)=O)cn(Cc2nnn(C[C@H](O)c3ccc(C#N)s3)n2)c1=O [Example 14],4,156,<23
Cn1c(=O)c(C(N)=O)cn(Cc2nnn(C[C@H](O)c3cc4cccc(F)c4o3)n2)c1=O [Example 15],14,198,<23

# From patent US11884652B2, “Tetrazole derivatives as TRPA1 inhibitors” (Boehringer Ingelheim International GmbH, priority 2020, dated 2024)
